Measurements taken from PubChem BioAssay (NCI).
Values joined by “and” are separate entries in the source; they are usually repeats but may differ in a detail not shown here. Equal values may be shown once.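 How tested: cells in 96-well plates exposed to compound for 48 hours at five concentrations. Here, GI50 denotes the concentration required for 50% inhibition of growth. TGI denotes the concentration required for complete inhibition of growth.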

How the values were obtained:
Assay in all cases: NCI-60 cell line screen, 48 h
DU-145 prostate = system: DU-145 prostate
UACC-257 melanoma = system: UACC-257 melanoma
A498 renal = system: A498 renal
SNB-19 CNS = system: SNB-19 CNS
SF-539 CNS = system: SF-539 CNS
786-0 renal = system: 786-0 renal
NCI/ADR-RES ovarian = system: NCI/ADR-RES ovarian
UO-31 renal = system: UO-31 renal
SK-MEL-28 melanoma = system: SK-MEL-28 melanoma
ACHN renal = system: ACHN renal
SK-OV-3 ovarian = system: SK-OV-3 ovarian
RPMI-8226 leukemia = system: RPMI-8226 leukemia
OVCAR-5 ovarian = system: OVCAR-5 ovarian
HOP-92 NSCLC = system: HOP-92 NSCLC
MDA-MB-231 breast = system: MDA-MB-231 breast
TK-10 renal = system: TK-10 renal
A549 NSCLC = system: A549 NSCLC
NCI-H226 lung = system: NCI-H226 lung
IGROV1 ovarian = system: IGROV1 ovarian
SK-MEL-2 melanoma = system: SK-MEL-2 melanoma
NCI-H23 lung = system: NCI-H23 lung
MALME-3M melanoma = system: MALME-3M melanoma

Compound Cc1n(Cc2ccc3ccccc3c2)c2ccccc2[n+]1Cc1ccc2ccccc2c1 has a GI50 (DU-145 prostate) of 1630 nM, a TGI (DU-145 prostate) of 3040 nM and a GI50 (UACC-257 melanoma) of 1240 nM. For the same compound, the TGI (UACC-257 melanoma) was 2790 nM, the GI50 (A498 renal) was 1350 nM and the TGI (A498 renal) was 2880 nM. The GI50 (SNB-19 CNS) was 1350 nM, the TGI (SNB-19 CNS) was 2770 nM and the GI50 (SF-539 CNS) was 1530 nM. It also gave a TGI (SF-539 CNS) of 2910 nM, a GI50 (786-0 renal) of 1750 nM and a TGI (786-0 renal) of 3320 nM. For the same compound, the GI50 (NCI/ADR-RES ovarian) was 19200 nM, the TGI (NCI/ADR-RES ovarian) was 87600 nM and the GI50 (UO-31 renal) was 1500 nM. It also gave a TGI (UO-31 renal) of 2870 nM, a GI50 (SK-MEL-28 melanoma) of 1540 nM and a TGI (SK-MEL-28 melanoma) of 3180 nM. For the same compound, the GI50 (ACHN renal) was 2460 nM, the TGI (ACHN renal) was 6490 nM and the GI50 (SK-OV-3 ovarian) was 1650 nM. It also gave a TGI (SK-OV-3 ovarian) of 3110 nM, a GI50 (RPMI-8226 leukemia) of 29.1 nM and a TGI (RPMI-8226 leukemia) of 1480 nM. It also gave a GI50 (OVCAR-5 ovarian) of 1420 nM, a TGI (OVCAR-5 ovarian) of 2820 nM and a GI50 (HOP-92 NSCLC) of 31.7 nM. The TGI (HOP-92 NSCLC) was 2060 nM, the GI50 (MDA-MB-231 breast) was 1330 nM and the TGI (MDA-MB-231 breast) was 2710 nM. The GI50 (TK-10 renal) was 1550 nM, the TGI (TK-10 renal) was 3030 nM and the GI50 (A549 NSCLC) was 1760 nM. The TGI (A549 NSCLC) was 3400 nM.
C/C=C/C[C@@H](C)C(=O)C1C(=O)N[C@@H](C(C)C)C(=O)N(C)CC(=O)N(C)[C@@H](CC(C)C)C(=O)N[C@@H](C(C)C)C(=O)N(C)[C@@H](CC(C)C)C(=O)N[C@@H](C)C(=O)N[C@@H](C)C(=O)N(C)[C@@H](CC(C)C)C(=O)N(C)[C@@H](CC(C)C)C(=O)N(C)[C@@H](C(C)C)C(=O)N1C (stereo partly drawn) was tested, and the GI50 (UACC-257 melanoma) was 45500 nM, the TGI (UACC-257 melanoma) was > 20500 nM and 67000 nM and the GI50 (A498 renal) was 50400 nM. The TGI (A498 renal) was 71500 nM, the GI50 (NCI-H226 lung) was 45300 nM and the TGI (NCI-H226 lung) was 18400 nM and 83200 nM. The TGI (HOP-92 NSCLC) was over 20500 nM, the GI50 (IGROV1 ovarian) was 20800 nM and the TGI (IGROV1 ovarian) was 65600 nM. The GI50 (SK-MEL-2 melanoma) was 40800 nM, the TGI (SK-MEL-2 melanoma) was 76300 nM and the GI50 (NCI-H23 lung) was 47000 nM. It also gave a TGI (NCI-H23 lung) of over 20500 nM and a GI50 (MALME-3M melanoma) of 75800 nM.
